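Five compound concentrations were applied to cells in 96-well plates for 48 hours; endpoints were derived by simple linear interpolation of the resulting dose-response curve. Here, GI50 denotes the concentration required for 50% inhibition of growth.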 The source made the active and inactive calls. Cut-off read from the data, not from the text of the source: active = GI50 up to about 1.1 µM and inactive = higher.
Key:
Assay in all cases: NCI anticancer screen, dose series, 48 h
RPMI-8226 = test system: RPMI-8226
T47D = test system: T47D
SNB-75 = test system: SNB-75
A498 = test system: A498
Malme-3M = test system: Malme-3M
Hs-578T = test system: Hs-578T
SR = test system: SR
MDA-MB-435 = test system: MDA-MB-435
EKVX = test system: EKVX
NCI/ADR-RES = test system: NCI/ADR-RES
NCI-H522 = test system: NCI-H522
MCF7 = test system: MCF7
MDA-N = test system: MDA-N
TK-10 = test system: TK-10
NCI-H226 = test system: NCI-H226
NCI-H23 = test system: NCI-H23
SK-MEL-2 = test system: SK-MEL-2
DU-145 = test system: DU-145
786-0 = test system: 786-0
KM-20L2 = test system: KM-20L2

Structure (SMILES) | GI50 (RPMI-8226) | GI50 (T47D) | GI50 (SNB-75) | GI50 (A498) | GI50 (Malme-3M) | GI50 (Hs-578T) | GI50 (SR) | GI50 (MDA-MB-435) | GI50 (EKVX) | GI50 (NCI/ADR-RES) | GI50 (NCI-H522) | GI50 (MCF7) | GI50 (MDA-N) | GI50 (TK-10) | GI50 (NCI-H226) | GI50 (NCI-H23) | GI50 (SK-MEL-2) | GI50 (DU-145) | GI50 (786-0) | GI50 (KM-20L2)
COc1cc2c3c(c4ccc(O)cc4c2cc1OC)[C@@H](O)[C@@H]1CCCN1C3 | < 0.001 µM (active) | < 0.001 µM (active) | < 0.001 µM (active) | < 0.001 µM (active) | < 0.001 µM (active) | < 0.001 µM (active) | < 0.001 µM (active) | < 0.001 µM (active) | < 0.001 µM (active) | 0.00166 µM (active) | < 0.001 µM (active) | < 0.001 µM (active) | < 0.001 µM (active) | 0.00106 µM (active) | < 0.001 µM (active) | 0.0012 µM (active) | < 0.001 µM (active) | < 0.001 µM (active) | < 0.001 µM (active) | 
O=c1cc(O)ccn1C1C=C(CO)C(O)C1O (stereo unspecified) | 411 µM (inactive) |  | > 625 µM (inactive) |  | > 625 µM (inactive) |  |  |  |  | > 625 µM (inactive) |  | > 625 µM (inactive) |  |  | > 625 µM (inactive) |  | > 625 µM (inactive) |  |  | > 625 µM (inactive)
Cc1c(/C=N/NC(=O)c2ccccc2O)c(=O)n(-c2ccccc2)n1C | 48.2 µM (inactive) |  | > 100 µM (inactive) |  | > 100 µM (inactive) |  | 45.8 µM (inactive) |  | 49.2 µM (inactive) |  | > 100 µM (inactive) |  |  | > 100 µM (inactive) | > 100 µM (inactive) | > 100 µM (inactive) | > 100 µM (inactive) |  | > 100 µM (inactive) | > 100 µM (inactive)
N#C/C(=C\c1ccc(C(O)P(=O)(O)O)cc1)C(N)=O (stereo unspecified) | > 100 µM (inactive) |  |  | > 100 µM (inactive) | > 100 µM (inactive) |  |  |  | > 100 µM (inactive) |  | > 100 µM (inactive) |  |  | > 100 µM (inactive) | > 100 µM (inactive) | > 100 µM (inactive) | > 100 µM (inactive) |  | 29.8 µM (inactive) | > 100 µM (inactive)
CC1(O)CCC2(C#N)CCC1C2O (stereo unspecified) | 26.5 µM (inactive) |  | > 100 µM (inactive) | > 100 µM (inactive) | > 100 µM (inactive) |  | 20.3 µM (inactive) |  | > 100 µM (inactive) |  | 50.6 µM (inactive) |  |  | > 100 µM (inactive) | > 100 µM (inactive) |  | > 100 µM (inactive) |  | > 100 µM (inactive) | 62.2 µM (inactive)
CCCCCNC(=O)c1c(O)[nH]c(=S)[nH]c1=O | > 100 µM (inactive) |  | > 100 µM (inactive) | 96.8 µM (inactive) | > 100 µM (inactive) |  | > 100 µM (inactive) |  |  |  | > 100 µM (inactive) |  |  | > 100 µM (inactive) | > 100 µM (inactive) | > 100 µM (inactive) | > 100 µM (inactive) |  | > 100 µM (inactive) | > 100 µM (inactive)
COc1cc[n+](C)cc1 | > 100 µM (inactive) |  | > 100 µM (inactive) |  | > 100 µM (inactive) |  |  |  | > 100 µM (inactive) | > 100 µM (inactive) | > 100 µM (inactive) | > 100 µM (inactive) |  |  | > 100 µM (inactive) | > 100 µM (inactive) | > 100 µM (inactive) |  |  | > 100 µM (inactive)
COc1cc(-c2ccc(/N=N/c3c(S(=O)(=O)O)cc4cc(S(=O)(=O)O)cc(N)c4c3O)c(OC)c2)ccc1/N=N/c1c(S(=O)(=O)O)cc2cc(S(=O)(=O)O)cc(N)c2c1O | > 100 µM (inactive) |  | 37.4 µM (inactive) | > 100 µM (inactive) | > 100 µM (inactive) |  |  |  | 88.5 µM (inactive) | > 100 µM (inactive) | > 100 µM (inactive) | > 100 µM (inactive) |  |  | > 62.1 µM (inactive) | > 100 µM (inactive) | > 100 µM (inactive) |  |  | 35 µM (inactive)
COc1ccc2cc(CNCCCCCCCCCCCCNCc3ccc4cc(OC)ccc4c3)ccc2c1 | 12.8 µM (inactive) | 15.8 µM (inactive) | 13.9 µM (inactive) | 18 µM (inactive) | 16.6 µM (inactive) | 15.9 µM (inactive) | 1.79 µM (inactive) | 25.6 µM (inactive) | 20.3 µM (inactive) | 19.5 µM (inactive) | 18.9 µM (inactive) | 17.1 µM (inactive) | 21.4 µM (inactive) | 18.8 µM (inactive) | 18.5 µM (inactive) | 20 µM (inactive) | 22.5 µM (inactive) | 30 µM (inactive) | 16.5 µM (inactive) | 

Reference: ChEMBL document CHEMBL1201862, “PubChem BioAssay data set” (2004)
